Legend:
[1] = Solubility of alkali salts in sodium hydroxide solution (FIG. 6, FIG. 7); type: physicochemical; conditions: 2 M sodium hydroxide, about 50° C.
Description: FIG. 6. Solubility curve of 11-aminoundecanoic acid in water at neutral pH, 1 M solution of sulfuric acid, and 2 M solution of sodium hydroxide.
FIG. 7. Solubility curve of heptanoic acid in a 6 M solution of sodium hydroxide and dodecanedioic acid in a 3 M solution of sodium hydroxide.
When the hydrolysis reaction of mixed amide derivatives from the Beckmann rearrangement is performed in the presence of alkali hydroxide, main products other than alkylamine are obtained in the form of their alkali salts. It was observed that a starting suspension of the mixed amide derivatives in a solution of alkali hydroxide is changed to a clear solution at a temperature of 60° C. or above after the hydrolysis.
Since long chain amino acid, e.g., 11-aminoundecanoic acid, has relatively constant solubility, evaporative concentration of the mother liquor will result in the crystallization of inorganic salt, in particular, sodium sulfate, along with valuable long chain amino acid. […] This finding greatly facilitates the separation of inorganic salt, most preferably, sodium sulfate, and the recovery of long chain amino acids.
In an alkali hydroxide hydrolysis of the mixed amide derivatives, two mole equivalents of alkali hydroxide are required, but more than two equivalents, usually between 2.5 to 3 equivalents of alkali hydroxide are used to achieve a complete hydrolysis. […]

[2] = Solubility of sodium salts in water, ethanol and aqueous ethanol (FIG. 8); type: physicochemical; conditions: for solubility change of the sodium salt in aqueous ethanol (in words): aqueous ethanol versus water or ethanol; for solubility of the sodium salt in water and in ethanol (in words): both water and ethanol
Text: FIG. 8. Solubility of 11-aminoundecanoic acid and dodecanedioic acid in aqueous ethanol solution of 2 M sodium hydroxide at different concentration of ethanol.
For example, FIG. 8 illustrates the solubility change of sodium salts of 11-aminoundecanoic acid and dodecanedioic acid in aqueous ethanol. […] This surprising finding renders the separation of these two salts possible.

[3] = physchem; conditions: aqueous buffer
[4] = Phase separation of hexylamine-water azeotrope distillate upon cooling; type: physicochemical; conditions: aqueous phase after cooling and phase separation
Text: For the production of 11-aminoundecanoic acid and dodecanedioic acid, hexylamine is one of the main products. Hexylamine is found to form an azeotrope with water and can be separated from the solution by azeotropic distillation. Upon cooling, the distillate separates into an upper phase of nearly pure hexylamine and an aqueous phase containing not more than 2% of hexylamine. Hexylamine can also be separated from the mixture by steam distillation or steam stripping. Complete separation is accomplished when the distillate at the overhead becomes nearly neutral at a pH of 7-8.

Compound	solubility of the alkali salt in 2 M solution of sodium hydroxide (in words) [1]	solubility change of the sodium salt in aqueous ethanol (in words) [2]	solubility of the sodium salt in water and in ethanol (in words) [2]	solubility [3] [mg/mL]	hexylamine content of the aqueous phase of the cooled azeotropic distillate [4]
NCCCCCCCCCCC(=O)O [11-aminoundecanoic acid]	freely soluble	drastically increases the solubility	nearly insoluble	–	–
O=C(O)CCCCCCCC(=O)O [azelaic acid]	–	–	–	> 600	–
O=C(O)CCCCCCCCCCC(=O)O [dodecanedioic acid]	–	remains unchanged	nearly insoluble	–	–
CCCCCCN [hexylamine]	–	–	–	–	not more than 2%

— patent publication US10899700B2, “Process for the separation of long chain amino acids and dibasic acids” (Vitaworks IP, LLC, priority 2017, dated 2021)
